One experiment has as its system SK-N-BE(2)-C cells. The experiment in a line: Alamar Blue cell viability assay, SK-N-BE(2)-C. It counts as cell-based. The note with it: Homo sapiens, MYCN amplified neuroblastoma cell line. The text has this: (§1) The MYCN amplified neuroblastoma cell line SK-N-BE(2)-C was kindly provided by Professor June Biedler (Memorial Sloan Kettering Cancer Centre, New York, NY, USA), and Kelly was obtained from European Collection of Cell Cultures. The two normal lung fibroblast cell lines (MRC-5 and WI-38) were purchased from ATCC. SK-N-BE(2)-C shMYCN#2 doxycycline-inducible cell and Kelly shMYCN#2 doxycycline-inducible cell were custom-made by GenScript (Piscataway, NJ, USA). SK-N-BE(2)-C, SK-N-BE(2)-C shMYCN#2, and SHEP MYCN3 doxycycline-inducible cells were maintained in Dulbecco’s modified Eagle’s medium (DMEM) (Invitrogen, Life Technologies, Waltham, MA, USA) with 10% foetal calf serum (FCS). Kelly and Kelly shMYCN#2 doxycycline-inducible cell were cultured in Roswell Park Memorial Institute (RPMI) 1640 (Invitrogen, Life Technologies) with 10% FCS. MRC-5 and WI-38 were cultured in Alpha-MEM media (Invitrogen, Life Technologies) with 10% FCS. All cells were not cultured for more than 2 months. All used cell lines were authenticated by Cell Bank Australia (Westmead, NSW, Australia) as being free from mycoplasma, and cultured at 37 °C and 5% CO2 in a humidifier incubator.
(§2) Cell viability was determined by the Alamar Blue assay (75 mg resazurin, 12.5 mg methylene blue, 164.5 mg potassium hexacyanoferrate (III), 211 mg potassium hexacyanoferrate (II) trihydrate in 500 mL of phosphate buffered saline). After 6 h incubation with Alamar Blue, the change of fluorescence was measured by Victor 3 multilabel Plate Reader (Perkin Elmer Australia, Melburne, Australia) at an excitation wavelength of 560 nm and an emission wavelength of 590 nm.
(§3) We have shown that the PA2G4 protein increased the half-life of the oncoprotein MYCN through direct binding, and competitive chemical inhibition of this bond by WS6 reduced tumorigenicity both in vitro and in vivo [11]. […] Here, we explored the structure–activity relationship (SAR) of WS6 analogue compounds with the aim to increase efficacy and reduce toxicity. […] The in vitro cytotoxicity of these 14 compounds were measured by cell viability assays using Alamar Blue in MYCN amplified human neuroblastoma (SK-N-BE(2)-C and Kelly) cell lines compared to non-malignant (WI-38, MRC-5) myofibroblast cell lines (Figure 1B,C and Supplementary Figure S1A).
For orientation: The colour change of resazurin is a common sign of viable cells or microbes.

The test system of the next experiment is Kelly cells. Kind of experiment: Alamar Blue cell viability assay, Kelly. It counts as cell-based. The conditions noted are these: Homo sapiens, MYCN amplified neuroblastoma cell line.
Description: as §1, §2, §3

Experiment [1] relates to neuroblastoma cells (Kelly, SK-N-BE(2)-C) compared to non-malignant myofibroblasts (WI-38, MRC-5). Kind of experiment: Therapeutic window, neuroblastoma cells versus non-malignant myofibroblasts. It counts as cell-based, human. The conditions noted are these: non-malignant myofibroblast IC50 versus neuroblastoma cell IC50. The method, then:
as §2, §3

Experiment [2] has as its system TH-MYCN neuroblastoma mice. The arrangement: method as in PMID 31501192. The conditions noted are these: cited from earlier work.
Another experiment deals with MRC-5 cells. Kind of experiment: Alamar Blue cell viability assay, MRC-5 non-malignant myofibroblasts. It counts as cell-based. The note with it: Homo sapiens, MRC5.
Description: as §1, §2, §3

A further experiment has as its system WI-38 cells. The experiment in a line: Alamar Blue cell viability assay, WI-38 non-malignant myofibroblasts. The note with it: Homo sapiens, read-out: IC50 WI-36. It counts as cell-based.
Description: as §1, §2, §3

We go through 1 molecule from PMC10046377, “Inhibitors of the Oncogenic PA2G4-MYCN Protein-Protein Interface” (Cancers, 2023).

For orientation: pIC50 means the negative decadic logarithm of the IC50, by convention in mol/L.

pIC50: −log10 of the molar value.

With `CN1CCN(Cc2ccc(NC(=O)Cc3ccc(Oc4cc(NC(=O)C5CC5)ncn4)cc3)cc2C(F)(F)F)CC1` [WS6, reference compound], the negative logarithm of the IC50 (pIC50) in the experiment with SK-N-BE(2)-C cells is 6.12; with Kelly cells, 6.19; in the experiment on MRC-5 cells it was 5.85; in the experiment with WI-38 cells, 5.82. The “Therapeutic window (fold difference)” value in experiment [1] was 2.1 fold. Further, the tumorigenicity result in experiment [2] is “significantly decreased tumorigenicity”.
